Measured values published in PubChem BioAssay AID330 (DTP/NCI, 2004).
Where “and” joins values, the source holds several entries; their conditions need not be identical. Equal entries are not always repeated. Toxic doses and inconclusive results are not listed. The calls were made as follows: active = survival T/C of 150% or more; inactive = T/C below 125% in these data.

Tested on: P388 leukemia ip, CD2F1 mice, survival T/C
Experiment: NCI In Vivo Anticancer Drug Screen. Data for tumor model P388 Leukemia (intraperitoneal) in CD2F1 (CDF1) mice
Settings: endpoint: median survival time, higher = longer survival
In short: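 Mice carrying the transplanted tumor received test compound or vehicle. Survival was recorded in each group, and the value is the treated-group measurement divided by that of the vehicle-treated control group.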

[1] = dose: 12.5 mg/kg/injection, schedule: Q01DX009 (ip), vehicle: saline
[2] = dose: 25.0 mg/kg/injection, schedule: Q01DX009 (ip), vehicle: saline
[3] = dose: 50.0 mg/kg/injection, schedule: Q01DX009 (ip), vehicle: saline
[4] = dose: 60.0 mg/kg/injection, schedule: Q01DX005 (ip), vehicle: saline with Tween-80
[5] = dose: 120.0 mg/kg/injection, schedule: Q01DX005 (ip), vehicle: saline with Tween-80
[6] = dose: 240.0 mg/kg/injection, schedule: Q01DX005 (ip), vehicle: saline with Tween-80

Measured: T/C

COc1cc(C[C@H]2c3cc(OC)c(OC)cc3CCN2C)c(Oc2cc3c(cc2OC)-c2c(OC)c(OC)cc4c2[C@H](C3)N(C)CC4)cc1OC
inactive: dose: 2.5 mg/kg/injection, schedule: Q03HX016 (ip), vehicle: saline 90 % of control | dose: 2.5 mg/kg/injection, schedule: Q03HX024 (ip), vehicle: saline 95 % of control | dose: 5.0 mg/kg/injection, schedule: Q03HX008 (ip), vehicle: saline 91 % of control | dose: 5.0 mg/kg/injection, schedule: Q03HX016 (ip), vehicle: saline 100 % of control | dose: 5.0 mg/kg/injection, schedule: Q03HX024 (ip), vehicle: saline 95 % of control | dose: 6.25 mg/kg/injection, schedule: Q01DX009 (ip), vehicle: saline 90 % of control | dose: 10.0 mg/kg/injection, schedule: Q01DX009 (ip), vehicle: distilled water + Tween-80 96 % of control | dose: 10.0 mg/kg/injection, schedule: Q03HX008 (ip), vehicle: saline 95 % of control | dose: 10.0 mg/kg/injection, schedule: Q03HX016 (ip), vehicle: saline 100 % of control | dose: 10.0 mg/kg/injection, schedule: Q03HX024 (ip), vehicle: saline 95 % of control | [1] 104 % of control | dose: 12.5 mg/kg/injection, schedule: Q01DX009 (oral), vehicle: saline 100 % of control | dose: 20.0 mg/kg/injection, schedule: Q01DX009 (ip), vehicle: distilled water + Tween-80 92 % of control | dose: 20.0 mg/kg/injection, schedule: Q03HX008 (ip), vehicle: saline 100 % of control | dose: 20.0 mg/kg/injection, schedule: Q03HX016 (ip), vehicle: saline 100 % of control | dose: 20.0 mg/kg/injection, schedule: Q03HX024 (ip), vehicle: saline 100 % of control | [2] 109 % of control | dose: 25.0 mg/kg/injection, schedule: Q01DX009 (oral), vehicle: saline 100 % of control | dose: 25.0 mg/kg/injection, schedule: Q04DX003 (ip), vehicle: saline 100 % of control | dose: 25.0 mg/kg/injection, schedule: Q08DX002 (ip), vehicle: saline 100 % of control | dose: 40.0 mg/kg/injection, schedule: Q01DX009 (ip), vehicle: distilled water + Tween-80 92 % of control | dose: 40.0 mg/kg/injection, schedule: Q03HX008 (ip), vehicle: saline 100 % of control | dose: 40.0 mg/kg/injection, schedule: Q03HX016 (ip), vehicle: saline 109 % of control | dose: 40.0 mg/kg/injection, schedule: Q03HX024 (ip), vehicle: saline 95 % of control | dose: 50.0 mg/kg/injection, schedule: Q01DX001 (ip), vehicle: saline 91 % of control | [3] 104 % of control | dose: 50.0 mg/kg/injection, schedule: Q01DX009 (oral), vehicle: saline 100 % of control | dose: 50.0 mg/kg/injection, schedule: Q04DX003 (ip), vehicle: saline 100 % of control | dose: 50.0 mg/kg/injection, schedule: Q08DX002 (ip), vehicle: saline 100 % of control | dose: 80.0 mg/kg/injection, schedule: Q01DX009 (ip), vehicle: distilled water + Tween-80 101 % of control | dose: 80.0 mg/kg/injection, schedule: Q03HX008 (ip), vehicle: saline 100 % of control | dose: 100.0 mg/kg/injection, schedule: Q01DX001 (ip), vehicle: saline 91 % of control | dose: 100.0 mg/kg/injection, schedule: Q01DX001 (oral), vehicle: saline 104 % of control | dose: 100.0 mg/kg/injection, schedule: Q01DX009 (ip), vehicle: saline 100 % of control | dose: 100.0 mg/kg/injection, schedule: Q01DX009 (oral), vehicle: saline 100 % of control | dose: 100.0 mg/kg/injection, schedule: Q04DX003 (ip), vehicle: saline 109 % of control | dose: 100.0 mg/kg/injection, schedule: Q08DX002 (ip), vehicle: saline 100 % of control | dose: 200.0 mg/kg/injection, schedule: Q01DX001 (ip), vehicle: saline 91 % of control | dose: 200.0 mg/kg/injection, schedule: Q01DX001 (oral), vehicle: saline 95 % of control | dose: 200.0 mg/kg/injection, schedule: Q01DX009 (oral), vehicle: saline 95 % of control | dose: 200.0 mg/kg/injection, schedule: Q04DX003 (ip), vehicle: saline 109 % of control | dose: 200.0 mg/kg/injection, schedule: Q08DX002 (ip), vehicle: saline 100 % of control | dose: 400.0 mg/kg/injection, schedule: Q01DX001 (ip), vehicle: saline 91 % of control | dose: 400.0 mg/kg/injection, schedule: Q01DX001 (oral), vehicle: saline 95 % of control | dose: 400.0 mg/kg/injection, schedule: Q08DX002 (ip), vehicle: saline 100 % of control | dose: 800.0 mg/kg/injection, schedule: Q01DX001 (ip), vehicle: saline 100 % of control | dose: 800.0 mg/kg/injection, schedule: Q01DX001 (oral), vehicle: saline 95 % of control | dose: 1600.0 mg/kg/injection, schedule: Q01DX001 (oral), vehicle: saline 104 % of control

CC1CCC2OC23C(=O)C2OC2C(C(C)(C)O)C13C (stereo not drawn)
inactive: dose: 100.0 mg/kg/injection, schedule: Q01DX001 (ip), vehicle: Klucel (hydroxypropylcellulose) (HPC) 104 % of control | dose: 200.0 mg/kg/injection, schedule: Q01DX001 (ip), vehicle: Klucel (hydroxypropylcellulose) (HPC) 101 % of control | dose: 400.0 mg/kg/injection, schedule: Q01DX001 (ip), vehicle: Klucel (hydroxypropylcellulose) (HPC) 100 % of control

CC(C)COC1CN=NN1/C=C1\CCOC1=O (stereo not drawn)
inactive: [4] 102 % of control | [5] 107 % of control | [6] 100 % of control

Cc1cn(CCCn2cnc3c(N)ncnc32)c(=O)[nH]c1=O
inactive: [4] 95 % of control | [5] 98 % of control | [6] 107 % of control

CC(C)N(C)N=Nc1ccc(C(N)=O)cc1
inactive: dose: 50.0 mg/kg/injection, schedule: Q01DX009 (ip), vehicle: Klucel (hydroxypropylcellulose) (HPC) 114 % of control and 120 % of control | dose: 100.0 mg/kg/injection, schedule: Q01DX009 (ip), vehicle: Klucel (hydroxypropylcellulose) (HPC) 113 % of control

CSc1ccc2ccccc2c1/C=[N+](/[O-])c1ccccc1
inactive: dose: 60.0 mg/kg/injection, schedule: Q01DX005 (ip), vehicle: Klucel (hydroxypropylcellulose) (HPC) 95 % of control | dose: 120.0 mg/kg/injection, schedule: Q01DX005 (ip), vehicle: Klucel (hydroxypropylcellulose) (HPC) 97 % of control | dose: 240.0 mg/kg/injection, schedule: Q01DX005 (ip), vehicle: Klucel (hydroxypropylcellulose) (HPC) 96 % of control

COCCOC(C)C(/C=N/N=C(N)N)=N/N=C(N)N (stereo not drawn)
inactive: dose: 12.5 mg/kg/injection, schedule: Q01DX005 (ip), vehicle: saline 101 % of control | dose: 25.0 mg/kg/injection, schedule: Q01DX005 (ip), vehicle: saline 103 % of control | dose: 50.0 mg/kg/injection, schedule: Q01DX005 (ip), vehicle: saline 99 % of control and 101 % of control

NCC(SSC(CN)C(=O)O)C(=O)O (stereo not drawn)
inactive: [1] 100 % of control | [2] 101 % of control | [3] 103 % of control and 115 % of control
